Experimental findings from PMC11729428, “New Potent Inhibitor of Transforming Growth Factor-Beta (TGFβ) Signaling that is Efficacious against Microsatellite Stable Colorectal Cancer Metastasis in Combination with Immune Checkpoint Therapy in Mice” (ACS Pharmacology & Translational Science, 2024) are described below.

The subject of data set [1] is panel of 97 wild-type and disease-relevant mutant kinases. Type of data set: binding. As to conditions: for Additional kinases showing >85% competitive binding: besides ALK5 and ALK4/ACVR1B. The source says: We also assessed the selectivity of these three inhibitors toward a panel of 97 wild-type and disease-relevant mutant kinases, distributed throughout various kinase families.
Figure 2 Selectivity of HYL001. […] TK: tyrosine kinases; TKL: tyrosine kinase-like kinases; STE: serine/threonine kinases; CK1: casein kinase 1 family; AGC: serine/threonine kinases, regulated by secondary messengers such as cyclic AMP (PKA) or lipids (PKC); CAMK: Ca^2+/calmodulin-dependent protein kinase family; and CMGC: primarily proline-directed serine/threonine kinases (CDKs, GSKs, MAP kinases, and CDK-like kinases).
5. Methods for In vitro characterizations of HYL001
Kinase affinity and selectivity
The affinity of the ALK5 inhibitor HYL001 was determined for the ALK kinase family using the […]
DNA-tagged kinases and immobilized assay ligands, using quantitative PCR —run by Eurofins/DiscoveryX (Birmingham AL, USA). Dissociation constants were calculated by measuring the amount of kinase captured on the solid support as a function of the test compound concentration. Kd values were obtained by an 11 -point […]
(BMPR1A), ALK4 (ACVR1B), ALK6 (BMPR1B), ACVR2B and TGFβ R2. In addition, this technology was […]
The strength of competitive binding, defined as the percentage of binding inhibition of kinases to assay ligan d, was visualized using the TREEspot software (DiscoverRx Corporation) and a selectivity score was calculated (the fraction of non -mutated kinases tested with competitive binding inhibition above threshold percentages 65 […]

The subject of a further data set is TGFβ pathway. Nature of the data set: Cellular TGFβ reporter (12xCAGA luciferase) assay in HEK293T cells. Type of data set: cell-based. As to conditions: for IC50: Homo sapiens, HEK-293T, 5 ng/mL recombinant TGFβ, 12xCAGA luciferase reporter, read-out: cellular inhibition TGFβ pathway IC50. How it is done:
We next tested the three inhibitors in a cellular assay, using a luciferase-based reporter assay[20] in HEK293T cells in the presence or absence of inhibitors (Table 1). Upon activation of the endogenous receptors by 5 ng/mL recombinant TGFβ, phosphorylation of the TGFBR1 triggers phosphorylation of the intracellular mediators SMAD2/3, and subsequent nuclear translocation with SMAD4. The SMAD2/3-SMAD4 complex binds to the TGFβ response element (12xCAGA) allowing the transcription of the Firefly luciferase reporter.
HEK293T cells were purchased from the ATCC and cultured in DMEM supplemented with L-glutamine and 10% fetal bovine serum (Life Technologies) at 37 °C and 5% CO2. The cells were seeded in 24-well plates and transfected with plasmids encoding 12xCAGA-Firefly_Luc and Tk-Renilla_Luc (75 and 10 ng per well, respectively) using polyethylenimine (Polysciences) as the transfection reagent. After 7 h, the medium was replaced with starvation medium (DMEM + 0.05% FBS). […] Bioluminescence was measured in a Berthold Lumat LB6507 luminometer (18 μL of reagents, 10 s measurements). Results were normalized to those of the Renilla transfection control. Inhibition–concentration curves were analyzed in Prism Graphpad Prism (v10.1.1) with a least-squares regression nonlinear fit.

The nature of data set [2]: Metabolic stability in human cryopreserved hepatocytes. The format is in vitro ADME. How it is done:
(§1) Metabolic stability in human primary hepatocytes
This assay was performed at Sai Life Sciences Lt. (Telangana, India) with human suspension hepatocytes […]
(§2) All other reactions were initiated by […]
analysis by LC-MS/MS, using MRM mode. […]
related to phase I and phase II metabolism, respectively.
The PARs were used for calculation of metabolic stability. The 0 min area ratio was considered as 100%. The […]
incubation volume / number of cells (in millions) x K e. To calculate into full body context, the values of 120 […]

Data set [3] can be described thus: Buffer stability (hepatocyte assay control). Type of data set: physicochemical. The procedure: Similarly, buffer was added to recovery and stability samples. Next,
Samples were monitored for
parent compound using multiple reaction monitoring (MRM) mode. […]
as §1
This assay was performed at Sai Life Sciences Lt. (Telangana, India) with human suspension hepatocytes
as §2

Data set [4] has as its system mouse tumor organoids (MTOs), established CRC liver metastases. Nature of the data set: Treatment of established CRC liver metastases, alone or with anti-PD1. The format is in vivo, mice. As to conditions: for Cure of established liver metastases as monotherapy: 0.1× doses: 80, 82 and 71 mg/kg BID for galunisertib, vactosertib and HYL001, anti-PD1 IP alone. The procedure: Encouraged by the increased potency observed in vitro and in the inhibition of liver metastatic initiation in vivo, we evaluated the ability of a relatively low HYL001 dose to help overcome established liver metastases when combined with immune checkpoint inhibition. In this experimental set up, a low number of MTO cells (25K) was injected in the portal vein (leaving the spleen unaltered), and liver metastases were allowed to develop and grow for 15 days before treatment with TGFβ inhibitors was initiated. This was done in combination with 3–4 intraperitoneal (IP) injections of immune-checkpoint inhibition therapy (anti-PD1 or isotype control antibody), spaced 2–3 days (Figure 6A,B).
Figure 6 HYL001 efficacy in dual immunotherapy against established CRC liver metastases. (A) Overview of experimental timing: dual treatment between days 14 and 28 after MTO injection (TGFβ inhibitor doses were all 0.1 ×); follow-up until humane end point. Below: numbers of countable liver lesions after sacrifice. Statistical comparisons to the vehicle + IgG2a control (above) or the vehicle+αPD1 condition (below) by two-tailed Mann–Whitney U test; ns: P ≥ 0.05; *P < 0.05; **P < 0.01; ***P < 0.001; ****P < 0.0001. (B) Kaplan–Meier curves indicate the survival (until humane end point) of mice under each treatment; P values were computed by the Mantel–Cox test (Log-rank).
For all tumor cell injections, C57BL/6J (or athymic BALB/C nu/nu) mice were purchased from Janvier at 6 weeks of age and injected at 7–8 weeks. Sex was matched with the origin of the tumor organoids, i.e., males for this study. Intrasplenic or portal vein injections, respectively, with 31G needles on 1 mL insulin syringes or 33G needles on a 50/100 μL Hamilton syringe, were used for liver colonization by the introduction of dissociated organoids (single cells) into the portal circulation. MTOs were cultured in standard six-well plates for 4 days and trypsinized as described before.[5] The resulting single cell suspension in HBSS (Lonza) was filtered through 100 and 40 μm mesh (to remove clumps of cells and aggregated debris). Intrasplenic injections were performed, as previously described,[5],[8],[9] using 2 × 10^5 cells in 70 μL HBSS. For portal vein injections, […] in 25 μL HBSS were injected directly into the portal vein.[5] Mice were euthanized at 3–5 weeks or at the humane end point (advanced metastasis-associated morbidity causing or threatening to cause severe suffering) to obtain survival-type data. Visible liver metastases were counted, and data were analyzed using GraphPad Prism software (v.7.03).
Gavage treatments were performed by technicians from the animal facility, not involved in this study (blinded). For checkpoint immunotherapy or dual treatments, we used rat anti-PD-1 (RMP1–14; Leinco P372) or rat IgG2a (Leinco I-1177) isotype-control antibodies.

[5] abbreviates: 10 μM compound, 90 kinases tested.
[6] abbreviates: human, hepatocytes, 0 h, pH 7.4.
Where [7] appears, read: human, hepatocytes, 5 min, pH 7.4.
[8] abbreviates: human, hepatocytes, 0.25 h, pH 7.4.
The mark [9] stands for this setting: human, hepatocytes, 0.5 h, pH 7.4.
The mark [10] stands for this setting: human, hepatocytes, pH 7.4, Disappearance T1/2.

Where two headings read alike, the source gives them in different places.

In the case of `Cc1cccc(-c2nn3c(c2-c2ccnc4ccc(O)cc24)CCC3)n1` [HYL001, 4-(2-(6-Methylpyridin-2-yl)-5,6-dihydro-4H-pyrrolo[1,2-b]pyrazol-3-yl)quinolin-6-ol], the “Number of kinase interactions (>65% competitive binding inhibition)” value (shortened to “Number … (>65% competitive binding inhibition)”) is recorded as 1 in data set [1] (0.3 μM compound, 22 kinases tested); 5 in data set [1] (3 μM compound, 22 kinases tested); 13 in data set [1] (setting [5]). Also, the “Selectivity score S(>65_10), fraction of wildtype kinases inhibited >65%” value in data set [1] (10 μM compound) came out at 0.144; in data set [1] (10 μM compound, listed as HYL) it was 0.14. Further, the “Selectivity score S(>90_10), fraction of wildtype kinases inhibited >90%” value in data set [1] (10 μM compound) was determined as 0.1. Also, the “Additional kinases showing >85% competitive binding” value in data set [1] was “ABL-1, CSNK1G2, and p38α”. In the data set with TGFβ pathway, the “Fold higher potency compared to galunisertib in TGFβ reporter assay” value is on record as roughly 2 fold. Besides, in the data set with TGFβ pathway, the IC50 came out at 72 nM. Further, the Parent compound remaining in data set [2] (setting [6]) is recorded as 100%; in data set [2] (setting [7]) it was 67%; in data set [2] (setting [8]), 59%; in data set [2] (setting [9]), 56%. For the same compound, the CLint scaled in data set [2] (human, hepatocytes, pH 7.4) was determined as 32.1 mL/min/kg. The compound also came in with a half-life in data set [2] (setting [10]) of 51.8 min. The “Buffer Stability” value in data set [3] (0 min, pH 7.4) turned out to be 100%; in data set [3] (60 min, pH 7.4), 117%. Moreover, the “Cure of established liver metastases as monotherapy” value (from here on “Cure … as monotherapy”) in data set [4] is reported as “not efficacious”. In addition, the “Tumor burden in numbers of liver nodules” value in data set [4] (dual therapy with anti-PD1) is listed as “marked overall reduction”. Further, the “Mice cured at the end point (number)” value in data set [4] (dual therapy with anti-PD1, 71 mg/kg BID) is recorded as 8/10. Further, the “Mice cured at the end point” value in data set [4] (dual therapy with anti-PD1, 71 mg/kg BID, surviving 2.5 months after injection) is “up to 80%”.
On to `Cc1cccc(-c2nn3c(c2-c2ccnc4ccc(C(N)=O)cc24)CCC3)n1` [galunisertib], for which the “Number … (>65% competitive binding inhibition)” value in data set [1] (setting [5]) worked out at 10. Moreover, the IC50 in the data set with TGFβ pathway was 157 nM. Further, the Parent compound remaining turned out to be 100% in data set [2] (setting [6]); 97% in data set [2] (setting [7]); 92% in data set [2] (setting [8]); 90% in data set [2] (setting [9]); 76% in data set [2] (human, hepatocytes, 1 h, pH 7.4). Further, the intrinsic clearance (CLint scaled) in data set [2] (human, hepatocytes, pH 7.4) was 10.4 mL/min/kg. For the same compound, the half-life in data set [2] (human, hepatocytes, pH 7.4, Assumed T1/2) was 160 min; in data set [2] (setting [10]) it was greater than 60 min. Besides, the “Buffer Stability” value in data set [3] (0 min, pH 7.4) is reported as 100%; in data set [3] (60 min, pH 7.4) it was 105%. Besides, the “Cure … as monotherapy” value in data set [4] is on record as “not efficacious”.
Turning to `Cc1cccc(-c2[nH]c(CNc3ccccc3F)nc2-c2ccc3ncnn3c2)n1` [vactosertib, N -((4-([1,2,4]Triazolo[1,5-a]Pyridin-6-Yl)-5-(6-Methylpyridin-2-Yl)-1 H -Imidazole-2-Yl)Methyl)-2-Fluoroaniline], the “Number … (>65% competitive binding inhibition)” value in data set [1] (setting [5]) came to 24. The “Additional kinases showing >85% competitive binding” value in data set [1] is “ERBB2, FGFR2/3, KIT, MEK1/2, PDGFRA/B, SRC, and VEGFR2”. Besides, in the data set on TGFβ pathway, the 50% inhibitory concentration (IC50) worked out at 10 nM. Besides, the intrinsic metabolic clearance (CLint scaled) in data set [2] (hepatocytes (suspension, cryopreserved), pH 7.4, scaled using 120 M cells per g liver, liver weight 20 g/kg (human), read-out: Scaled in vivo Clint) stood at 30.1 mL/min/kg. The Parent compound remaining is recorded as 100% in data set [2] (human hepatocytes, incubation time 0 min); 60% in data set [2] (human hepatocytes, incubation time 5 min); 59% in data set [2] (human hepatocytes, incubation time 15 min); 52% in data set [2] (human hepatocytes, incubation time 30 min); less than 50% in data set [2] (human hepatocytes, incubation time 60 min); 39% in data set [2] (human hepatocytes, incubation time 60 min, listed as Vactosertib). In addition, the half-life in data set [2] (human, hepatocytes (suspension, cryopreserved), pH 7.4, human hepatocytes, read-out: Disappearance T1/2) amounted to 55.3 min. For the same compound, the “Buffer Stability” value in data set [3] (0 min) was 100%; in data set [3] (60 min), 84%. The “Cure … as monotherapy” value in data set [4] was “not efficacious”.

By IC50 is commonly meant the midpoint of a concentration-inhibition curve. The term CLint scaled denotes a measure of how fast metabolising enzymes remove a compound, apart from limits set by blood flow.
